Key:
Test in all cases: biochemical
Parameters in all cases: Ubiquigent DUB profiler selectivity panel, remaining enzyme activity as % of control
Conditions in all cases: read-out: % of control remaining
OTUD6B = target: T1, OTUD6B (Homo sapiens, UniProt Q8N6M0)
T1 sequence (Q8N6M0 1-293): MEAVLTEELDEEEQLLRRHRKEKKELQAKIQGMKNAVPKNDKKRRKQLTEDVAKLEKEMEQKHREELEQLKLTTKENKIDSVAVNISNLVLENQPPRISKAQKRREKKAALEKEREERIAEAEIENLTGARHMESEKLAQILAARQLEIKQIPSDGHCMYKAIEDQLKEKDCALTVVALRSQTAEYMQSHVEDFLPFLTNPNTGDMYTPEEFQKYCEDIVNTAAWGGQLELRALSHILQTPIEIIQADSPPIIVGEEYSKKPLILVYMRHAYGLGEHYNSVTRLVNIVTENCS
Experimental: (§1) Previous work has reported IC50 values for a series of benzosulphonamide inhibitors, of which all those <1 μM were screened for selectivity, in comparison to three other USP family members ([20], [21]). We have selected one of these compounds (CMPD-39, Fig 1A) for a more rigorous test of selectivity provided by the Ubiquigent DUB profiler screening platform comprising >40 DUBs. […] To test engagement of the inhibitor with USP30 applied to intact cells, we assayed competition with Ub-PA (Ub-propargylamide). Ub-PA covalently binds to the USP30 active site leading to a characteristic upshift on a SDS–PAGE gel ([22]). If a drug blocks access to the catalytic site, then the probe modification is blocked and the apparent molecular weight of USP30 shifts down accordingly. […] A robust proxy read-out for target engagement is the enhancement of TOMM20 ubiquitylation after mitochondrial depolarization ([6], [16]). This second assay indicates a maximal effect with 200 nM CMPD-39 applied to RPE1-YFP-PRKN cells (Fig 1D).  Figure 1. CMPD-39 is a selective USP30 inhibitor. (A) Chemical structure of CMPD-39. (B) DUB specificity screen (DUB profiler, Ubiquigent) with 1-100 μM CMPD-39. […] Samples were incubated with CMPD-39 for 2 h at the indicated concentrations, then incubated with HA-Ub-PA probe for 10 min at 37°C and immunoblotted as shown. Red arrow indicates unbound USP30; blue arrow represents probe bound USP30. (D) Inhibition of USP30 enhances the ubiquitylation of TOMM20 in YFP-PRKN over-expressing hTERT-RPE1 cells in a concentration dependent manner in response to mitophagy induction. Cells were treated for 1 h with DMSO or antimycin A and oligomycin A (AO; 1 μM each) in the absence or presence of CMPD-39 at the indicated concentrations, lysed, and analyzed by Western blotting. Black arrow indicates unmodified TOMM20, ubiquitylated species are indicated by red (mono-ubiquitylated) or blue arrow heads. […] Source data are available for this figure.

USP11 = USP11 (Homo sapiens, UniProt P51784)
USP11, sequence (P51784 whole entry): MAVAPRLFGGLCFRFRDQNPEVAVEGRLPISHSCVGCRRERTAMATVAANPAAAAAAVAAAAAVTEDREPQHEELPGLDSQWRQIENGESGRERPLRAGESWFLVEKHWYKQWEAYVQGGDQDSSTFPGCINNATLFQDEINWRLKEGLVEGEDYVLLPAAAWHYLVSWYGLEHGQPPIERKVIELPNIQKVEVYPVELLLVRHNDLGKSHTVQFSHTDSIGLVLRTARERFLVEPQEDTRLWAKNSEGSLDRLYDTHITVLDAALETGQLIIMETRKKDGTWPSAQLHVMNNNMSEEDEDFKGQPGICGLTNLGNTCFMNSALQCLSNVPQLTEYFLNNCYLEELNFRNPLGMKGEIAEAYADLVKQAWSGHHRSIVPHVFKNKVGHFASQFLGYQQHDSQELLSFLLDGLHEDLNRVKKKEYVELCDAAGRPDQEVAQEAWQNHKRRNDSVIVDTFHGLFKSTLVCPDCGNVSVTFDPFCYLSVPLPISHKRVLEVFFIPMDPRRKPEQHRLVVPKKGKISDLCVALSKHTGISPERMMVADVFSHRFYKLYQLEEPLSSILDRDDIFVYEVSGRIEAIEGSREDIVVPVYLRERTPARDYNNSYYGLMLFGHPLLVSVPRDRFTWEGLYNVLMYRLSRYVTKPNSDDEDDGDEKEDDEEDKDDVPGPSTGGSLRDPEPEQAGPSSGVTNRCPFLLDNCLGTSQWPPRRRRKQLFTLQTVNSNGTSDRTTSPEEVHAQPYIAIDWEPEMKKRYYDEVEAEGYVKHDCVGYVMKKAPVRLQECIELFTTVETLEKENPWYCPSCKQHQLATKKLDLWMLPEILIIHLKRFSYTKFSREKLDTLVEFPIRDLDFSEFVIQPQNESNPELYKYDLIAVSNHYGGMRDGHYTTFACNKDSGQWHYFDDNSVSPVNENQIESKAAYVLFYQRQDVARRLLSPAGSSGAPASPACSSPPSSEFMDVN
Experimental: as §1

OTUD6A = target: T2, OTUD6A (Homo sapiens, UniProt Q7L8S5)
T2 sequence (Q7L8S5 1-288): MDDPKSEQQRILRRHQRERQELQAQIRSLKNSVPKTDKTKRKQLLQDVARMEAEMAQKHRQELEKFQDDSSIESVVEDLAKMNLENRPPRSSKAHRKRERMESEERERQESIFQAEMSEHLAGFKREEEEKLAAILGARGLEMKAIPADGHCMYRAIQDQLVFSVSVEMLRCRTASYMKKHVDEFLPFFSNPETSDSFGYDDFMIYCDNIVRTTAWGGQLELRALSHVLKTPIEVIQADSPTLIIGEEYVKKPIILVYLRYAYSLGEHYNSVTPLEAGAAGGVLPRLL
Experimental: as §1

USP2 = target: T3, USP2 (Homo sapiens, UniProt O75604)
T3 sequence (O75604 1-605): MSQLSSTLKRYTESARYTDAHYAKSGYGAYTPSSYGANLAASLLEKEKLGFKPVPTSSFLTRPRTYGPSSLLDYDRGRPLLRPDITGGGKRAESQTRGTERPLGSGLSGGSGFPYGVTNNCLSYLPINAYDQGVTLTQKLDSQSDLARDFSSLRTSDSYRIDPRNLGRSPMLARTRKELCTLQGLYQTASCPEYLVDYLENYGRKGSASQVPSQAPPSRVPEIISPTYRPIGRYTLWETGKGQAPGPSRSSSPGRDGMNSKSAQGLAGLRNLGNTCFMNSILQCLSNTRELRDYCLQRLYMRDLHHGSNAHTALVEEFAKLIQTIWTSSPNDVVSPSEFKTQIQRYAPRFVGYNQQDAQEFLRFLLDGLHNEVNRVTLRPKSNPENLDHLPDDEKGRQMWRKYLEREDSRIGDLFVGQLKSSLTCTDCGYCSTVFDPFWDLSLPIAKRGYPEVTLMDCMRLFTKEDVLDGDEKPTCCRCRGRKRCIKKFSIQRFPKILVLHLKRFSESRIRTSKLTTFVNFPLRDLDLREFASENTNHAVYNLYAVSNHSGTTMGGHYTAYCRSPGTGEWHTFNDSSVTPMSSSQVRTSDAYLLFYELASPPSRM
Experimental: as §1

remaining activity at 1 µM (OTUD6B): 110%
remaining activity at 10 µM (OTUD6B): 100%
remaining activity at 100 µM (OTUD6B): 101%
remaining activity at 1 µM (USP11): 103%
remaining activity at 10 µM (USP11): 98.4%
remaining activity at 100 µM (USP11): 97.2%
remaining activity at 1 µM (OTUD6A): 103%
remaining activity at 10 µM (OTUD6A): 99.3%
remaining activity at 100 µM (OTUD6A): 101%
remaining activity at 1 µM (USP2): 107%
remaining activity at 10 µM (USP2): 97.7%
remaining activity at 100 µM (USP2): 101%
Compound: CC(C)(C)NS(=O)(=O)c1ccc(NC(=O)[C@H](Cc2ccccc2)NC(=O)c2ccc(F)cc2)cc1 [compound 39, CMPD-39]
